Test results published in article PMC7179259, “Safety, Tolerability, Pharmacokinetics, and Antimalarial Activity of the Novel Plasmodium Phosphatidylinositol 4-Kinase Inhibitor MMV390048 in Healthy Volunteers” (Antimicrobial Agents and Chemotherapy, 2020).
Marks after values point to notes of the source that are not given here.

Experiments:
[1] = system: healthy volunteers; assay: First-in-human single-ascending-dose study: safety and tolerability; type: in vivo; conditions: for lowest observed neutrophil count: 24 h after 40 mg
Method: The first-in-human study was conducted at the University of Cape Town Clinical Research Centre (Cape Town, South Africa) between 30 April 2014 and 2 February 2015. This was a phase 1, adaptive, single-center, double-blind, randomized, placebo-controlled, ascending-dose study. The study was planned in two parts, with a single ascending dose and then a multiple ascending dose. However, the multiple-ascending-dose part was not executed due to the high variability in pharmacokinetic profiles observed during the single-ascending-dose part (see Results).
(i) First-in-human study. The study was conducted in five fasted cohorts (5, 20, 40, 80, and 120 mg) and one fed 40-mg cohort. The initial dose of 5 mg was chosen in agreement with guidelines on dose selection for first-in-human clinical studies ([15], [16]) and was based on the no-observed-adverse-event level for the most sensitive species observed in preclinical toxicology studies. Doses administered to subsequent cohorts were determined a priori after consideration of interim human pharmacokinetic and safety data.
MMV390048 and placebo were each supplied as a powder for suspension packaged in white opaque high-density polyethylene bottles, with a volume capacity of 100 ml when reconstituted with deionized water (Almac Pharma Services, United Kingdom). The powder contained the following excipients: Avicel CL611, disodium edetate, sodium citrate dihydrate, methyl paraben, sucralose, povidone, and orange flavor. The reconstituted formulation consisted of the active ingredient MMV390048 in an aqueous suspension of 5 mg ml^−1.
All subjects in the fasted cohorts were dosed on day 1 after a fasting period of ≥8 h. Water was prohibited from 2 h predose and then allowed ad libitum from 2 h postdose, and standardized meals were provided from 4 h postdose. In the first two cohorts (5 and 20 mg), a sentinel subcohort (n = 2) was dosed on day 1. The safety review team reviewed safety and pharmacokinetic data of these subjects up to day 3 before dosing the rest of these two cohorts and up to day 19 for all cohorts before dose escalation. […] Selected subjects from the fasted cohorts then received 40 mg in a fed state to evaluate the effect of food on the tolerability and pharmacokinetic profile of MMV390048. […] The predose breakfast was in line with FDA guidelines ([13]) and was composed of approximately 800 to 1,000 calories (cal), with 150, 250, and 500 to 600 cal from protein, carbohydrate, and fat, respectively.
Safety endpoints were the incidence, severity, and relationship to the investigational product (and inoculum for the IBSM study) of observed and self-reported adverse events (AEs), and changes from baseline in physical examination, vital signs, standard electrocardiograms (ECGs), continuous ECGs (first-in-human study only), and laboratory evaluation (hematology, coagulation parameters, hemolysis panel, clinical chemistry, and urinalysis) findings. […] AE severity was evaluated according to the Common Terminology Criteria for Adverse Events version 4.03 ([18]) and the World Health Organization recommendations for grading acute and subacute toxic effects ([19]).

[2] = set-up: method as in PMID 28446690; conditions: predicted for humans; cited from earlier work
[3] = first-in-human study, 5 mg (n = 6)
[4] = first-in-human study, 20 mg (n = 6)
[5] = first-in-human study, 40 mg (n = 6)
[6] = first-in-human study, 40 mg (n = 6), AE was neutropenia
[7] = first-in-human study, 40 mg FED (n = 6)
[8] = first-in-human study, 40 mg FED (n = 6), AE was neutropenia
[9] = first-in-human study, 80 mg (n = 6)
[10] = first-in-human study, 120 mg (n = 6)
[11] = first-in-human study, 120 mg (n = 6), SAE was generalized myoclonus

With `CS(=O)(=O)c1ccc(-c2cnc(N)c(-c3ccc(C(F)(F)F)nc3)c2)cc1` [MMV390048] the “serious AE (SAE) reported” value ([1]; approximately 24 h after 120 mg, subject with undisclosed history of epilepsy) was “generalized myoclonus”, the “No. (%) of subjects with adverse events: All AEs” value [1, 3] was 4 (67) and the “No. (%) of subjects with adverse events: All AEs, Treatment related” value (“No. (%) … All AEs, Treatment related” below) [1, 3] was 0. The “No. (%) of subjects with adverse events: Grade 2 AEs” value [1, 3] was 0, the “No. (%) of subjects with adverse events: Grade 2 AEs, Treatment related” value (from here on “No. (%) … Grade 2 AEs, Treatment related”) [1, 3] was 0 and the “No. (%) of subjects with adverse events: Grade 3 AEs” value (shortened to “No. (%) of subjects … Grade 3 AEs”) [1, 3] was 0. The “No. (%) of subjects with adverse events: SAEs” value (“No. (%) of subjects … SAEs” for short) [1, 3] was 0, the “No. of adverse events: All AEs” value [1, 3] was 11 and the “No. of adverse events: All AEs, Treatment related” value [1, 3] was 0. For the same molecule, the “No. of adverse events: Grade 2 AEs” value [1, 3] was 0, the “No. of adverse events: Grade 2 AEs, Treatment related” value [1, 3] was 0 and the “No. of adverse events: Grade 3 AEs” value [1, 3] was 0. The “No. of adverse events: SAEs” value [1, 3] was 0, the “No. (%) of subjects with adverse events: All AEs” value [1, 4] was 5 (83) and the “No. (%) … All AEs, Treatment related” value [1, 4] was 3 (50). The “No. (%) of subjects with adverse events: Grade 2 AEs” value [1, 4] was 4 (67), the “No. (%) … Grade 2 AEs, Treatment related” value [1, 4] was 1 (17) and the “No. (%) of subjects … Grade 3 AEs” value [1, 4] was 0. For the same molecule, the “No. (%) of subjects … SAEs” value [1, 4] was 0, the “No. of adverse events: All AEs” value [1, 4] was 12 and the “No. of adverse events: All AEs, Treatment related” value [1, 4] was 3. The “No. of adverse events: Grade 2 AEs” value [1, 4] was 5, the “No. of adverse events: Grade 2 AEs, Treatment related” value [1, 4] was 1 and the “No. of adverse events: Grade 3 AEs” value [1, 4] was 0. The “No. of adverse events: SAEs” value [1, 4] was 0, the “No. (%) of subjects with adverse events: All AEs” value [1, 5] was 5 (83) and the “No. (%) … All AEs, Treatment related” value [1, 5] was 3 (50). For the same molecule, the “No. (%) of subjects with adverse events: Grade 2 AEs” value [1, 5] was 3 (50), the “No. (%) … Grade 2 AEs, Treatment related” value [1, 5] was 1 (17) and the “No. (%) of subjects … SAEs” value [1, 5] was 0. The “No. of adverse events: All AEs” value [1, 5] was 19, the “No. of adverse events: All AEs, Treatment related” value [1, 5] was 3 and the “No. of adverse events: Grade 2 AEs” value [1, 5] was 4. The “No. of adverse events: Grade 2 AEs, Treatment related” value [1, 5] was 1, the “No. of adverse events: SAEs” value [1, 5] was 0 and the “No. (%) of subjects … Grade 3 AEs” value [1, 6] was 1 (17)^c. For the same molecule, the “No. of adverse events: Grade 3 AEs” value [1, 6] was 1^c, the “No. (%) of subjects with adverse events: All AEs” value [1, 7] was 6 (100) and the “No. (%) … All AEs, Treatment related” value [1, 7] was 2 (33). For the same molecule, the “No. (%) of subjects with adverse events: Grade 2 AEs” value [1, 7] was 2 (33), the “No. (%) … Grade 2 AEs, Treatment related” value [1, 7] was 1 (17) and the “No. (%) of subjects … SAEs” value [1, 7] was 0. For the same molecule, the “No. of adverse events: All AEs” value [1, 7] was 22, the “No. of adverse events: All AEs, Treatment related” value [1, 7] was 2 and the “No. of adverse events: Grade 2 AEs” value [1, 7] was 2. For the same molecule, the “No. of adverse events: Grade 2 AEs, Treatment related” value [1, 7] was 1, the “No. of adverse events: SAEs” value [1, 7] was 0 and the “No. (%) of subjects … Grade 3 AEs” value [1, 8] was 1 (17)^c. The “No. of adverse events: Grade 3 AEs” value [1, 8] was 1^c, the “No. (%) of subjects with adverse events: All AEs” value [1, 9] was 6 (100) and the “No. (%) … All AEs, Treatment related” value [1, 9] was 2 (33). The “No. (%) of subjects with adverse events: Grade 2 AEs” value [1, 9] was 5 (83), the “No. (%) … Grade 2 AEs, Treatment related” value [1, 9] was 0 and the “No. (%) of subjects … Grade 3 AEs” value [1, 9] was 0. The “No. (%) of subjects … SAEs” value [1, 9] was 0, the “No. of adverse events: All AEs” value [1, 9] was 20 and the “No. of adverse events: All AEs, Treatment related” value [1, 9] was 3. The “No. of adverse events: Grade 2 AEs” value [1, 9] was 6, the “No. of adverse events: Grade 2 AEs, Treatment related” value [1, 9] was 0 and the “No. of adverse events: Grade 3 AEs” value [1, 9] was 0. For the same molecule, the “No. of adverse events: SAEs” value [1, 9] was 0, the “No. (%) of subjects with adverse events: All AEs” value [1, 10] was 6 (100) and the “No. (%) … All AEs, Treatment related” value [1, 10] was 1 (17). The “No. (%) of subjects with adverse events: Grade 2 AEs” value [1, 10] was 2 (33), the “No. (%) … Grade 2 AEs, Treatment related” value [1, 10] was 1 (17) and the “No. (%) of subjects … Grade 3 AEs” value [1, 10] was 0. For the same molecule, the “No. of adverse events: All AEs” value [1, 10] was 11, the “No. of adverse events: All AEs, Treatment related” value [1, 10] was 1 and the “No. of adverse events: Grade 2 AEs” value [1, 10] was 3. For the same molecule, the “No. of adverse events: Grade 2 AEs, Treatment related” value [1, 10] was 1, the “No. of adverse events: Grade 3 AEs” value [1, 10] was 0 and the “No. (%) of subjects … SAEs” value [1, 11] was 1 (17)^e. For the same molecule, the “No. of adverse events: SAEs” value [1, 11] was 1^e, the “trends in inhibin B, FSH, LH, or testosterone levels” value ([1]; first-in-human study, across dose groups) was “No trends” and the “adverse events considered potentially related to MMV390048” value ([1]; first-in-human study, all MMV390048 cohorts) was “Twelve”. The “QT prolongation (QTcF, >450 ms)” value ([1]; first-in-human study, any subject) was “No QT prolongation”, the “decrease in blood pressure (to)” value ([1]; first-in-human study, mild related AE, one subject) was 87/52 and the “diarrhea considered related to MMV390048, cases” value ([1]; first-in-human study, moderate severity, in 2 subjects) was 2. For the same molecule, the “duration of moderate papular urticaria episode” value ([1]; one subject, 20 mg) was 20 days, the “onset of moderate papular urticaria after dosing” value ([1]; one subject, 20 mg) was 14 days and the “time for neutrophil count to return to >1.5 × 10^9 liter^−1” value ([1]; one subject, 40 mg fasted) was 4 days. The “time for neutrophil count to return to >1.5 × 10^9 liter^−1” value ([1]; one subject, 40 mg fed) was 13 days, the “PR prolongation on ECG, maximum” value ([1]; one subject, 24 h after 20 mg, PR 200.3 ms on admission) was 285 ms and the “lowest observed neutrophil count” value ([1]; one subject, fasted state (predose 1.65)) was 7.7e+08 L⁻¹. For the same molecule, the “lowest observed neutrophil count” value ([1]; one subject, fed state (predose 1.90)) was 9.7e+08 L⁻¹, the tolerability ([1]; single oral dose up to 120 mg, healthy volunteers) was “generally well tolerated” and the “elimination half-life in humans predicted from preclinical studies” value [2] was 90 h.
